Data set [1] is described as follows: in vitro metabolic stability test, human liver homogenate (S9 fraction). In kind it is in vitro ADME. Conditions: 100 nM, sampling 5, 10, 30, 60 minutes, LC-MS/MS, FIG. 1 (1). The method, then:
(§1) Using human and rat liver homogenates (S9 fractions), the in vitro metabolic stability test of tolvaptan (racemic compound), R-tolvaptan, and S-tolvaptan was performed. The concentration of each evaluated compound was set to 100 nM, and the concentration sampling of each compound in a reaction mixture was conducted over time, i.e., 5, 10, 30, and 60 minutes after addition, and measured by LC-MS/MS (FIGS. 1 (1) and (2)).

Data set [2] can be described thus: dissolution test of tolvaptan powders. Format: physicochemical. Conditions: Test Example 3; crystal powders; 0.1 g in 500 mL polysorbate 80 / phosphate solution pH 7.4; sampling up to 48 hours; FIG. 5. The method, then: The dissolution test of each of the R- and S-tolvaptan SD powders of Examples 1 and 2, tolvaptan (racemic compound) SD powders of Comparative Examples 1 to 6, and tolvaptan (racemic compound) crystal powder of Comparative Example 7 was performed (FIGS. 2 to 4). In the dissolution test method, the R- and S-tolvaptan SD powders, tolvaptan (racemic compound) SD powders, and tolvaptan (racemic compound) crystal powder were weighed out in individual amounts of 0.1 g, and added to a solution (500 mL) for dissolution test shown in Table 2. None of the tolvaptans in an amount weighed above were dissolved in the solvent for dissolution test, and were fully suspended. Sequential sampling was performed 0.083, 0.167, 0.5, 1, 2, 4, 6, 8, 12, 24, 48, and 144 hours after addition.
The dissolution test of each of the R- and S-tolvaptan crystal powders was performed (FIG. 5). As a control, the result of Comparative Example 7 in Test Example 2 above was plotted. In the dissolution test method, an R-tolvaptan crystal powder (mean particle size: 34.0 μm) or an S-tolvaptan crystal powder (mean particle size: 35.8 μm) was weighed out in an amount of 0.1 g, and added to the solution for the dissolution test (500 mL) shown in Table 2 above. None of the tolvaptans in an amount weighed above were dissolved in the solution for dissolution test, and were fully suspended. […]

The nature of data set [3]: in vitro metabolic stability test, rat liver homogenate (S9 fraction). In kind it is in vitro ADME. Conditions: 100 nM, sampling 5, 10, 30, 60 minutes, LC-MS/MS, FIG. 1 (2). The method, then:
as §1

For `Cc1ccccc1C(=O)Nc1ccc(C(=O)N2CCC[C@H](O)c3cc(Cl)ccc32)c(C)c1` [S-tolvaptan, S-(−)-7-chloro-5-hydroxy-1-[2-methyl-4-(2-methylbenzoylamino)benzoyl]-2,3,4,5-tetrahydro-1H-benzazepine], in data set [1], the “in vitro metabolic stability (disappearance over time)” value was “disappeared slowly compared to tolvaptan (racemic compound) or R-tolvaptan, and had high metabolic stability”. The dissolution amount result in data set [2] was “slightly higher than that of the tolvaptan (racemic compound) crystal of Comparative Example 7, and remained fairly constant”.
In the case of `Cc1ccccc1C(=O)Nc1ccc(C(=O)N2CCC[C@@H](O)c3cc(Cl)ccc32)c(C)c1` [R-tolvaptan, R-(+)-7-chloro-5-hydroxy-1-[2-methyl-4-(2-methylbenzoylamino)benzoyl]-2,3,4,5-tetrahydro-1H-benzazepine], in data set [3], the “in vitro metabolic stability (disappearance over time)” value was “disappeared slowly compared to tolvaptan (racemic compound) or S-tolvaptan, and had high metabolic stability”. The dissolution amount entry in data set [2] is “slightly higher than that of the tolvaptan (racemic compound) crystal of Comparative Example 7, and remained fairly constant”.

The values above are taken from patent US9597283B2, “Injectable depot formulation comprising optically active tolvaptan and process of producing the same” (OTSUKA PHARMACEUTICAL CO., LTD., priority 2012, dated 2017).
